{"source": "patent US20250249010A1", "about": "“METHODS FOR TREATING PRIMARY MEMBRANOUS NEPHROPATHY” (BEIGENE SWITZERLAND GMBH, priority 2022, published 2025)", "key": {"CYP2C19": {"test_system": "CYP2C19", "assay": "Clinical drug-drug interaction study (Study BGB-3111-108), CYP2C19", "type": "in vivo", "settings": "clinical drug-drug interaction study BGB-3111-108"}, "CYP3A4": {"test_system": "CYP3A4", "assay": "Clinical drug-drug interaction study (Study BGB-3111-108), CYP3A4", "type": "in vivo", "settings": "clinical drug-drug interaction study BGB-3111-108"}, "[1]": {"test_system": "patients with B-cell malignancies", "settings": "320 mg per day (160 mg twice a day); cited from earlier work"}}}
{"smiles": "C=CC(=O)N1CCC([C@@H]2CCNc3c(C(N)=O)c(-c4ccc(Oc5ccccc5)cc4)nn32)CC1", "note": "[zanubrutinib, (S)-7-(1-acryloylpiperidin-4-yl)-2-(4-phenoxyphenyl)-4,5,6,7-tetrahydropyrazolo[1,5-a]pyrimidine-3-carboxamide]", "values": [{"measurement": "CYP2C19 induction", "setting": "CYP2C19", "result": "mild inducer"}, {"measurement": "CYP3A4 induction", "setting": "CYP3A4", "result": "mild inducer"}, {"measurement": "efficacy in patients with B-cell malignancies", "setting": "[1]", "result": "efficacious"}, {"measurement": "tolerability in patients with B-cell malignancies", "setting": "[1]", "result": "well tolerated"}]}
